Assay results from ChEMBL document CHEMBL3507680, “University of Dundee, Gates Library screen for HepG2 cell viability”.

Experiment: Human HepG2 cell viability assay in 384 well format
Format: toxicity, cell-based
Parameters: dose 125 nL, time 70.5 hour; concentration not given beside the values
Conditions: HepG2 cells, read-out: Inhibition

Row | SMILES | cytotoxicity at 70.5 h [%]
1 | CCc1ncc(C(=O)N2CCN(c3cnn(C)c(=O)c3)CC2)cn1 | -5.02
2 | O=C(NC[C@H]1OC[C@@H](NC2CCC(F)(F)CC2)[C@@H]1O)N1CCOCC1 | -6.74
3 | Cc1ccc(-c2nc(CN3CCn4c(nnc4C4CC4)C3)co2)cc1 | -5.93
4 | COCCN(C)Cc1cc(Cl)ccc1OCC(O)CN1CCCCCC1 (stereo unspecified) | -11.6
5 | FC(F)(F)c1nc(C2CCCNC2)no1 (stereo unspecified) | -0.742
6 | Cc1nc(N)sc1C(=O)N1CCCC(COc2ccc(F)cc2)C1 (stereo unspecified) | -0.394
7 | O=C(NC[C@H]1OC[C@@H]2CCN(Cc3ccco3)C[C@@H]21)c1ccnnc1 | -1.68
8 | O=C(CCN1C[C@H]2CC[C@@H]1CN(c1ncccn1)C2)NCc1ccco1 | 27.5
9 | CCc1noc(C(C)N(C)CC(=O)Nc2c(C)cccc2C)n1 (stereo unspecified) | -4.56
10 | CNC(=O)C1CN(C(=O)c2ccncc2)CCN(S(C)(=O)=O)C1 (stereo unspecified) | 22.7
11 | Cc1ccccc1SC1CCN(C(=O)[C@H]2[C@@H]3CNC[C@@H]32)CC1 | -1.38
12 | CCn1nccc1CNc1[nH]cnc2nc(C)nc1-2 | 27.9
13 | Cc1occc1C(=O)N1CCc2ncnc(C3CCOC3)c2CC1 (stereo unspecified) | -12.9
14 | CN1CCN(C(=O)CCn2c(C(F)(F)F)cc3cccnc32)CC1 | 34.4
15 | CCc1ccccc1OCCN(C)C(=O)CN1CCCC1 | -6.67
16 | CC(C)n1cnnc1Cn1ccc2ncccc2c1=O | 1
17 | CCNC(=O)CNC(=O)Nc1c(F)cc(F)cc1-c1ccccc1 | -9.19
18 | Cn1nccc1CCNC(=O)[C@H]1CNC[C@H](C(=O)N2CCCC2)C1 | 0.341
19 | CC(C)n1cnc2ccc(NC(=O)CCCn3cccn3)cc2c1=O | 21.7
20 | CC(C)(O)CN1CCN(C(=O)COCc2ccccc2Cl)CC1 | -0.918
21 | CN(CCOc1cccc(CN)c1)C1CCOCC1 | -8.25

Row | SMILES | cytotoxicity at 70.5 h [%]
22 | CCC(C)(C)NC(=O)Cn1nnc(CN(C)C(=O)c2ccccc2)n1 | -3.46
23 | CCCc1cncnc1N1CCC(NCCc2nc(O)cc(O)n2)CC1 | -7.02
24 | O=C(NC1CC1)[C@H]1C[C@H]2OCC[C@H]2N(Cc2ccco2)C1 | -8.44
25 | Cc1n[nH]c(=O)c2c(NC(=O)CN3CCC(O)CC3)oc(C)c12 | 7.13
26 | O=C(O)c1ccccc1-c1ccc(CN2CCC(CO)CC2)cn1 | -9.48
27 | COC(=O)CN1N=C(C(=O)N2CCCC2)S(=O)(=O)c2ccccc21 | -4.54
28 | CN1CCN(Cc2cnc3n2CCN(C(=O)c2cnccn2)C3)CC1 | -4.26
29 | COCC(=O)N1CCc2nc(NC(C)C)nc(NC(C)C)c2CC1 | -0.713
30 | CCN(c1cccc(F)c1)S(=O)(=O)c1cc(C(=O)O)cc2c1CCC2 | -9.22
31 | COc1ccc(CN2Cc3[nH]nc(C(=O)N(C)C)c3C2)cc1 | -11.8
32 | Cc1nn(C)c(C)c1C(C)NCc1ccsc1 (stereo unspecified) | 3.61
33 | COc1cccc(CNC(C)Cn2cccn2)c1OC (stereo unspecified) | 2.73
34 | O=C(c1ccccc1F)N1CCCC1Cn1c(=O)oc2ccccc21 (stereo unspecified) | -0.201
35 | CC(C)Nc1nc2c(c(N(C)C)n1)CCN(Cc1nccn1C)CC2 | 10.1
36 | O=C([C@H]1CCCN1)N1CC2(CCNCC2)c2cc(Cl)ccc21 | 30
37 | O=C(CCNc1ccc(Cl)cn1)NCc1ccncc1 | -8.13
38 | CNS(=O)(=O)c1ccc(CNC(=O)C2CN(C)CCO2)cc1 (stereo unspecified) | -5.64
39 | Cn1c(C2CC2)nc2c1CCN(CCS(=O)(=O)c1ccccc1)C2 | -14.4
40 | Cc1ccc(C(=O)N2CCCC3(C2)C(=O)N(C)c2ccccc23)c(=O)[nH]1 (stereo unspecified) | -10.2
41 | O=C(COc1ccc2c(c1)OCC2O)NCc1ccco1 (stereo unspecified) | -0.449
42 | NC(=O)C1CCCN1Cc1cccc(NC(=O)c2ccsc2)c1 (stereo unspecified) | -11.3

Row | SMILES | cytotoxicity at 70.5 h [%]
43 | Cn1c2ccccc2c2ncn(CCCN3CCOCC3)c(=O)c21 | 12.2
44 | O=C(c1ccc(SC(F)(F)F)cc1)N1CCOCC1c1ncon1 (stereo unspecified) | -5.57
45 | CN(C)CCN(C)S(=O)(=O)Cc1ccc(Br)cc1 | 11.7
46 | CN1CCCN(c2nccc(-c3c[nH]nc3C3CCCCC3)n2)CC1 | -3.95
47 | COc1cc(CNC(=O)c2c(C)noc2C)ccn1 | -4.45
48 | O=C(Cn1nc(C(F)(F)F)c(Cl)c1C1CC1)NN1CCOCC1 | 12.9
49 | CN1CCN(C(=O)Cc2ccccn2)Cc2cccnc21 | -2.09
50 | CC(C)NC(=O)c1ccc2c(c1)nc1n2CCN(c2ccccc2)C1 | -11.7
51 | O=C(CCn1ncc2c(Cl)cccc21)NCCCO | -5.48
52 | COC(=O)CC(c1ccc(OC)c(OC)c1OC)c1c(O)n[nH]c1C (stereo unspecified) | -15.1
53 | Cc1ccnc(OC[C@@]23CCO[C@@H]2CCN(C2CCC2)C3)n1 | 4.5
54 | Cc1cccc(C(=O)N(CCCO)S(=O)(=O)c2cccs2)c1 | -0.969
55 | Cc1ccc(S(=O)(=O)n2ccn(C(=O)COc3ccccc3)c2=O)cc1 | -9.68
56 | O=C(c1ccc2ncsc2c1)N1CCC(C(=O)O)(n2cccn2)CC1 | -8.58
57 | CC(=O)Nc1ccc(CNC(C)c2c(C)nn(C)c2C)cc1 (stereo unspecified) | 13.1
58 | CO[C@@H]1CC[C@@H](NC(=O)CCc2ccc(Cl)cc2)[C@H]1O | -7.81
59 | CCOc1cccc(CNC(=O)NCC(O)c2cccc(F)c2)c1 (stereo unspecified) | 10.6
60 | Cc1cc(C2CCCN(CCc3ccc4c(c3)CCO4)C2)n[nH]1 (stereo unspecified) | -8.81
61 | Cn1c(CN2CCOCC2)cc(=O)c(O)c1CN1CCCC1 | -6.51
62 | Cn1ncc(N2CCC(CNC3Cc4ccccc4C3)C2)cc1=O (stereo unspecified) | 3.7
63 | O=C(O)c1ccccc1-c1ccc(CN2CCCC(O)C2)cc1 (stereo unspecified) | -8.74

Row | SMILES | cytotoxicity at 70.5 h [%]
64 | Cc1cc(CNC2CCCN(c3cccnn3)C2)no1 (stereo unspecified) | 5.47
65 | COc1cc(CNCCc2nc(C)cs2)cc2c1OCCO2 | -0.752
66 | N#CCCCS(=O)(=O)NC1(c2cccc(Cl)c2)CC1 | -9.01
67 | COc1cc(OC)cc(C2(O)CCN(Cc3ncc(C)o3)CC2)c1 | 18.5
68 | CCn1cc(CN2CCC(CN3CCCCC3)CC2)cc1C#N | 4.33
69 | N#Cc1ccc(C(=O)N2CCCSCC2CN2CCCC2)cc1 (stereo unspecified) | -5.18
70 | CC(C)Cc1cc(NC(=O)c2ccncc2)n(C)n1 | -11.6
71 | COCC(=O)N1CC[C@@H]2O[C@H](COCc3csc(C)n3)CC[C@@H]21 | -4.59
72 | Cc1cc(C(=O)Nc2n[nH]c(C3CC3)n2)c2c(C)noc2n1 | 29
73 | O=C(c1cnn(-c2ccccc2)c1)N1CCN(c2cnccn2)CC1 | -15.3
74 | CC(=O)N(C)c1nc(CN2CCCC2c2cnn(C)c2)cs1 (stereo unspecified) | 1
75 | CC(NCc1ccc(OCC(N)=O)cc1)c1ccc(Cl)cc1Cl (stereo unspecified) | -5.48
76 | Cc1cc(CN(C)C(=O)CNS(=O)(=O)c2cccs2)no1 | -6.5
77 | Cc1nc(CCN)cc(N2CCC(O)(c3ccc(Cl)cc3)CC2)n1 | 19.3
78 | COc1cccc(N2CCN(C(C(=O)O)c3ccc(OC)nc3)CC2)c1 (stereo unspecified) | -9.28
79 | Cc1cccc(CN2CCc3ncnc(N4CCCC4)c3CC2)n1 | -2.78
80 | CC(C)(C)OC(=O)NC(C)(C(N)=O)c1cccc(Cl)c1 (stereo unspecified) | 25.4
81 | CNCc1n[nH]c(=O)n1-c1ccccc1Oc1ccccc1 | 1.39
